According to PMC11876601 (Molecular Systems Biology, 2025):
Like-named read-outs stand apart in the source and are kept apart here.

Tests used:
[1] = tested on: STK4; set-up: method as in Klaeger et al. (2017); details: STK4, 4 cell line mix lysate, Kinobeads y, ref Klaeger et al. (2017); cited from earlier work
[2] = tested on: RPS6KA6; set-up: method as in Klaeger et al. (2017); details: lysate 4 cell line mix (Colo205, K-562, MV-4-11, and SK-N-BE(2)), Kinobeads y, ref Klaeger et al. (2017); cited from earlier work
[3] = tested on: TBK1; set-up: method as in Klaeger et al. (2017); details: lysate 4 cell line mix (Colo205, K-562, MV-4-11, and SK-N-BE(2)), Kinobeads y, ref Klaeger et al. (2017); cited from earlier work
[4] = tested on: MAPK9; set-up: method as in Klaeger et al. (2017); details: lysate 4 cell line mix (Colo205, K-562, MV-4-11, and SK-N-BE(2)), Kinobeads y, ref Klaeger et al. (2017); cited from earlier work
[5] = target: EIF3J; details: 5 cell line mix lysate, Kinobeads ε, ref Reinecke et al. (2023), cited from earlier work
[6] = tested on: TAOK3; set-up: method as in Reinecke et al. (2023); details: TAOK3, 5 cell line mix lysate, Kinobeads ε, ref Reinecke et al. (2023), cited from earlier work
[7] = tested on: WEE1; details: WEE1, 5 cell line mix lysate, Kinobeads ε, ref Reinecke et al. (2023), cited from earlier work
[8] = tested on: TRAF2; set-up: method as in Reinecke et al. (2023); details: TRAF2, 5 cell line mix lysate, Kinobeads ε, ref Reinecke et al. (2023), cited from earlier work
[9] = tested on: TBK1; details: TBK1, 5 cell line mix lysate, Kinobeads ε, ref Reinecke et al. (2023), cited from earlier work
[10] = tested on: PANC-1; test: cells; set-up: Viability of PDAC cell lines, ATPlite luminescence, 11-dose single-agent curve fit; details: Homo sapiens, PANC-1, 72 h, read-out: EC50 [nM]
In short: (§1)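 cells (1000 to 5000 per well) seeded 24 h before drug addition in a screen at 0.2% final DMSO. Controls were drug-free wells (negative) and 5 µM staurosporine (positive).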

[11] = tested on: HuP-T4; test: cells; set-up: Viability of PDAC cell lines, ATPlite luminescence, 11-dose single-agent curve fit; details: Homo sapiens, HuP-T4, 72 h, read-out: EC50 [nM]
In short: as §1

[12] = tested on: PSN-1; test: cells; set-up: Viability of PDAC cell lines, ATPlite luminescence, 11-dose single-agent curve fit; details: Homo sapiens, PSN1, 72 h, read-out: EC50 [nM]
In short: as §1

[13] = tested on: Colo-357; test: cells; set-up: Viability of PDAC cell lines, ATPlite luminescence, 11-dose single-agent curve fit; details: Homo sapiens, COLO357, 72 h, read-out: EC50 [nM]
In short: as §1

[14] = tested on: HPDE; test: cells; set-up: Viability of PDAC cell lines, ATPlite luminescence, 11-dose single-agent curve fit; details: HPDE, 72 h, read-out: EC50 [nM]
In short: as §1

[15] = tested on: Capan-1; test: cells; set-up: Viability of PDAC cell lines, ATPlite luminescence, 11-dose single-agent curve fit; details: Homo sapiens, CAPAN-1, 72 h, read-out: EC50 [nM]
In short: as §1

## C[C@]12O[C@H](C[C@]1(O)CO)n1c3ccccc3c3c4c(c5c6ccccc6n2c5c31)CNC4=O [Lestaurtinib]
[1]
  EC50: 59.4 nM
[2]
  EC50: 2330 nM
[3]
  EC50: […]
[4]
  EC50: 2470 nM

## COc1cc(N2CCC(N3CCN(C)CC3)CC2)ccc1Nc1ncc(Cl)c(Nc2ccccc2P(C)(C)=O)n1 [Brigatinib]
[5]; read-out: KDapp
  Kd: 434 nM
[5]
  EC50: 434 nM
  pKDapp: 6.36
[6]
  EC50: 690 nM
  pKDapp: 6.27
[6]; read-out: KDapp
  Kd: 534 nM
[7]
  EC50: 1950 nM
  pKDapp: 5.91
[7]; read-out: KDapp
  Kd: 1240 nM
[8]
  EC50: 3940 nM
  pKDapp: 5.48
[8]; read-out: KDapp
  Kd: 3280 nM
[9]
  EC50: 1020 nM
  pKDapp: 6.18
[9]; read-out: KDapp
  Kd: 655 nM

## CCN1CCN(Cc2ccc(Nc3ncc(F)c(-c4cc(F)c5nc(C)n(C(C)C)c5c4)n3)nc2)CC1 [Abemaciclib]
[10]
  EC50: 5540 nM
[11]
  EC50: 7.93 nM
[12]
  EC50: 151 nM
[13]
  EC50: 160 nM
[14]
  EC50: > 10000 nM
[15]
  EC50: 245 nM
